Converted amounts (≈) assume the structure as drawn. Starred links: 1 amine or outer side, 2 acyl side, 3 side chain; linkers in the order of their positions; H or OH if unused. Positions of bridges follow the written chain, without caps; N, C: chain ends. Non-standard residues stand in square brackets, D forms with d. Residues, ends and D or L forms follow the SMILES beside them. *: point of attachment. hTyr(3S-OH,4S-OH,3'-OSO3H) = N[C@H](C(=O)O)[C@H](O)[C@@H](O)c1ccc(O)c(OS(=O)(=O)O)c1; Orn(4R-OH,5R-OH) = O=C([C@H](C[C@@H](O)[C@@H](O)N[*:3])N[*:1])[*:2]; Pro(3S-OH,4S-Me) = C[C@H]1CN[C@H](C(=O)O)[C@H]1O; X1 = CCCCCOc1ccc(-c2cc(-c3ccc(C(=O)*)cc3)no2)cc1; Gln(3R-OH) = NC(=O)C[C@@H](O)[C@H](N)C(=O)O; Hyp = O=C(O)[C@@H]1C[C@@H](O)CN1

Here are results for three molecules from US11415513B2, “Method for determining the degree of sensitivity of a strain of fungus to an antifungal agent” (UNIVERSITE GRENOBLE ALPES, priority 2015, dated 2022).

In test [1] the test system is strain ATCC®6258 of C. krusei. Put plainly: Etest method (MIC). In kind it is cell-based, Candida krusei. The settings on record: RPMI medium plates, 24 h at 35° C.; for MIC: Pichia kudriavzevii, ATCC6258; for phenotype by Etest MIC, interpretation by the EUCAST or CLSI table: fluconazole interpreted by extrapolation of the EUCAST and CLSI data for C. glabrata. As to the method:
(§1) The Etest® method is a commercial test for determining the sensitivity of a strain, most frequently used routinely in clinical mycology laboratories.
(§2) The Etest® tests were performed according to the manufacturer's instructions. After distributing a standardised Mac Farland 0.5 inoculum (equivalent of […]) over plates of RPMI medium, said plates were incubated for 24 h at 35° C., with the exception of C. glabrata in which case the incubation was extended to 48 h so as to be able to determine the minimum inhibitory concentration (MIC).
(§3) The results of the MICs obtained were interpreted in accordance with the tables of the CLSI (Clinical and Laboratory Standards Institute) and/or of EUCAST (European Committee on Antimicrobial Susceptibility Testing) (Arendrup M C, Cuenca-Estrella M, Lass-Flörl C, Hope W W (2014) Breakpoints for antifungal agents: an update from EUCAST focussing on echinocandins against Candida spp and triazoles against Aspergillus spp. Drug Resist Updat 16(6):81-95. doi:10.1016/j.drup.2014.01.001) (cf. Table 2 taken from Maubon D, Garnaud C, Calandra T, et al. (2014) Resistance of Candida spp. to antifungal drugs in the ICU: where are we now? Intensive Care Med. doi: 10.1007/s00134-014-3404-7) which list the clinical thresholds (CBPs) for the most common species of yeast of the genus Candida as a function of different antifungal agents, or according to the table of epidemiological thresholds (ECVs).

For test [2], the system named is strain GRE32 of C. krusei. Briefly: Etest method (MIC). The class given is cell-based, Candida krusei. The settings on record: RPMI medium plates, 24 h at 35° C.; for MIC: Pichia kudriavzevii; for phenotype by Etest MIC, interpretation by the EUCAST or CLSI table: fluconazole interpreted by extrapolation of the EUCAST and CLSI data for C. glabrata. The method, then:
as §1, §2, §3

In test [3] the test system is strain DSY296 of C. albicans. Put plainly: Etest method (MIC). The class given is cell-based, Candida albicans. The settings on record: RPMI medium plates, 24 h at 35° C.; for MIC: Candida albicans. The method, then: as §1, §2, §3
In test [4] the test system is strain SC5314 of C. albicans. Put plainly: Etest method (MIC). Conditions: RPMI medium plates, 24 h at 35° C.; for MIC: Candida albicans, SC5314. In kind it is cell-based, Candida albicans. The method, then:
as §1, §2, §3

The subject of test [5] is strain GRE32 of C. krusei. Briefly: Sensitivity test by HCA microscopy (chitin level, Calcofluor White; cell count). In kind it is cell-based, Candida krusei. The method, then: The strains of Candida were incubated beforehand at 30° C. overnight in a yeast extract medium—peptone dextrose (YPD) (1% bacto peptone, 0.5% yeast extract, 2% glucose, 1.5% agar).
Yeast colonies were then removed from YPD medium plates and suspended in a 0.9% NaCl saline solution, in which the cell concentration was estimated by optical microscopy using Kova counting slides.
A dilution was performed to obtain 15 ml of an inoculum at 3×10^6 CFU/ml, in a synthetic complete (SC) medium at pH 7 (2% glucose, 0.5% ammonium sulfate, 0.17% nitrogen-containing yeast base, 0.2% synthetic complete mixture, and 10% HEPES 1.5M pH 7.2) for C. albicans, C. parapsilosis, C. tropicalis and C. krusei, and in a solution of RPMI 1640 pH 7.3 (10% HEPES 1M pH 7.2) for C. glabrata, so as to reduce the formation of septa and clusters.
1 ml of inoculum was then added to 2 ml of antifungal solution prepared in an SC or RPMI medium depending on the species of fungus, so as to obtain a final concentration of yeast of 10^6 CFU/ml and the desired concentration of antifungal agent according to table 1.
After homogenisation, the cultures were placed at 30° C. at 200 rpm, with the exception of cultures of C. glabrata, which were placed at 35° C. at 200 rpm, and incubated for a period of 6.5 h or 24 h.
After incubation, 100 μl of the culture of fungi obtained above were transferred in triplicate to 96-well plates, and 2.5 μl of Calcofluor White (CFW) were added to each well so as to mark the chitin of the cell walls of the yeasts.
A step of acquiring images by automated fluorescence microscopy (ScanR screening station, Olympus), using a 40× lens and a CFW filter, made it possible to obtain 30 images per well so as to capture enough cells to provide statistically significant data. These images were analysed by software (ScanR analysis software, Olympus). Firstly, the background noise was processed so as to improve the contrast between the fluorescence of the yeasts and background noise. A pixel threshold was then defined. Segmentation of the fluorescent elements present in each of the acquired images was then performed using an algorithm predefined in the software, making it possible to determine the limit of each element on the basis of the fluorescence intensity of said element. A size parameter was then applied to select the yeasts and eliminate the aggregates and the fluorescent debris.
Each element then corresponding to a yeast, it was thus possible, on the basis of these elements predefined beforehand, to define the fluorescence intensity for each of the yeasts, this intensity being directly correlated with the chitin content of their wall.
On the basis of said defined elements, it was also possible to automatically count the yeasts,
The strain GRE32 of C. krusei was cultivated as described in paragraph I of the Examples section so as to obtain an inoculum at 3×10^6 CFU/ml in 15 ml of SC medium.
2 ml of fluconazole solution prepared in the SC medium were then added to 1 ml of this inoculum so as to obtain a final concentration of yeast of 10^6 CFU/ml and of 128 μg/ml in fluconazole. […]
The chitin level in the cell wall of the yeasts was then measured by […] analysis (HCA) microscopy, as described in paragraph II of the Examples section, in triplicate for each condition of concentration of fluconazole and without fluconazole. […]

The subject of test [6] is strain 8/21 of C. parapsilosis. Put plainly: Etest method (MIC). The settings on record: RPMI medium plates, 24 h at 35° C.; for MIC: Lodderomyces parapsilosis. In kind it is cell-based, Candida parapsilosis. The method, then: as §1, §2, §3
Test [7] deals with strain 13/5 of C. tropicalis. Put plainly: Etest method (MIC). The class given is cell-based, Candida tropicalis. Conditions: RPMI medium plates, 24 h at 35° C. The method, then:
as §1, §2, §3

One may read the MIC as the lowest concentration that inhibits growth of the organism. Lower therefore signals greater potency. As for `OC(Cn1cncn1)(Cn1cncn1)c1ccc(F)cc1F` [fluconazole], the MIC stood at 64 µg/mL (≈ 209 µM) in test [1]; 64 µg/mL (≈ 209 µM) in test [2]; 96 µg/mL (≈ 313 µM) in test [3]; 0.125 µg/mL (≈ 0.408 µM) in test [4]; 8 µg/mL (≈ 26.1 µM) in test [6]. Moreover, the “phenotype by Etest MIC, interpretation by the EUCAST or CLSI table” value in test [1] and in test [2] was “resistant” in each case. Also, the “phenotype by Etest MIC, interpretation by the EUCAST and CLSI tables” value in test [3] was “resistant”; in test [4] it was “sensitive”; in test [6], “resistant”. Further, the “phenotype of the strain with respect to the antifungal agent (HCA)” value in test [5] (6.5 h at 30° C., SC medium) was “resistant (an increase in the chitin level having a value less than 10% or a decrease in the chitin level of less than 20% or an unchanged chitin level)”. Further, in test [5] (vs cells in the absence of antifungal agent, 6.5 h at 30° C., SC medium, concentration gradient of Table 1), the “decrease in the chitin level in the wall of the cells” value is recorded as “less than 20%”.

Regarding `C[C@@H](c1ncncc1F)[C@](O)(Cn1cncn1)c1ccc(F)cc1F` [voriconazole], the MIC in test [1] is 1 µg/mL (≈ 2.86 µM); in test [2], 1 µg/mL (≈ 2.86 µM); in test [3], 1 µg/mL (≈ 2.86 µM); in test [4], 0.012 µg/mL (≈ 0.0344 µM); in test [6], 4 µg/mL (≈ 11.5 µM). Also, the “phenotype by Etest MIC, interpretation by the EUCAST or CLSI table” value in test [1] and in test [2] was “intermediate” in each case. The “phenotype by Etest MIC, interpretation by the EUCAST and CLSI tables” value is “resistant” in test [3], “sensitive” in test [4] and “resistant” in test [6]. Also, the “phenotype of the strain with respect to the antifungal agent (HCA)” value in test [5] (24 h at 30° C.) is recorded as “intermediate (an increase in the chitin level having a value of from 10% to a value less than 20%)”. Moreover, the “decrease of the number of cells” value in test [5] (vs cells in the absence of antifungal agent, 24 h at 30° C.) is reported as “less than 0.3 log”. For the same molecule, the “increase in the chitin level in the wall of the cells” value in test [5] (vs cells in the absence of antifungal agent, 24 h at 30° C., inoculum in SC medium, antifungal solution in RPMI medium, concentration gradient of Table 1) is “greater than or equal to 20%”.

With `CCCCCOc1ccc(-c2cc(-c3ccc(C(=O)N[C@H]4C[C@@H](O)[C@@H](O)NC(=O)[C@@H]5[C@@H](O)[C@@H](C)CN5C(=O)[C@H]([C@H](O)CC(N)=O)NC(=O)[C@H]([C@H](O)[C@@H](O)c5ccc(O)c(OS(=O)(=O)O)c5)NC(=O)[C@@H]5C[C@@H](O)CN5C(=O)[C@H]([C@@H](C)O)NC4=O)cc3)no2)cc1` [micafungin] (X1-[Orn(4R-OH,5R-OH)]T[Hyp][hTyr(3S-OH,4S-OH,3'-OSO3H)][Gln(3R-OH)][Pro(3S-OH,4S-Me)]; lactam 1-C), in test [7] (Candida tropicalis), inhibition of growth (MIC) required 1.5 µg/mL (≈ 1.18 µM). Also, the “phenotype by Etest MIC, interpretation by the CLSI table” value in test [7] is “resistant”.
